Peptide text beside a SMILES is read from it.
Experiments:
Test in all cases: biochemical
Type in all cases: binding, BALB/c mouse
[1] = target: H2-K^d (Mus musculus, UniProt P01902)
[2] = target: H2-D^d (Mus musculus, UniProt P01900)
[3] = target: H2-L^d (Mus musculus, UniProt P01897)
[4] = target: T1, I-A^d (Mus musculus, UniProt P01921+P04228); conditions: Binding Assay IC50, I-A^d (membrane 15mers)
T1 sequence (P04228 24-256): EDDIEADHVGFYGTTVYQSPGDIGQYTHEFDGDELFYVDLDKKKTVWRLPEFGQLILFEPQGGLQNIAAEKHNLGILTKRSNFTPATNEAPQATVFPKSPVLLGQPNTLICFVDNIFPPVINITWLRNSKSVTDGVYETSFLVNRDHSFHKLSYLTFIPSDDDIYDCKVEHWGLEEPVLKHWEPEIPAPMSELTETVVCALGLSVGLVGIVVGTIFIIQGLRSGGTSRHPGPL
T1 sequence (P01921 28-265): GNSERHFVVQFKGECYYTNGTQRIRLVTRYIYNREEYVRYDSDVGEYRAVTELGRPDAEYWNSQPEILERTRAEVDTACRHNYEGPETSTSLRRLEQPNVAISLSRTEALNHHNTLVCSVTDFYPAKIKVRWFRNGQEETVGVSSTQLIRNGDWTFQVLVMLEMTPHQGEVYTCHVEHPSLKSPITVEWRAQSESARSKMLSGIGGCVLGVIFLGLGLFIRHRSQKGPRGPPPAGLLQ

[5] = target: T2, I-E^d (Mus musculus, UniProt P01904+P01915)
T2 sequence (P01904 26-255): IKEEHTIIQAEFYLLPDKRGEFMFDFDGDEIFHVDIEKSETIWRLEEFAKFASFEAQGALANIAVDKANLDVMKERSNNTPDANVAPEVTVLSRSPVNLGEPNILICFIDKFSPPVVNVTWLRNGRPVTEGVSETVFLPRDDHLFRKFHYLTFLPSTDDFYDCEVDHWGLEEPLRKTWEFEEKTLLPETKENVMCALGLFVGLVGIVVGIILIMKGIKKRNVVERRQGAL
T2 sequence (P01915 27-264 limits assumed): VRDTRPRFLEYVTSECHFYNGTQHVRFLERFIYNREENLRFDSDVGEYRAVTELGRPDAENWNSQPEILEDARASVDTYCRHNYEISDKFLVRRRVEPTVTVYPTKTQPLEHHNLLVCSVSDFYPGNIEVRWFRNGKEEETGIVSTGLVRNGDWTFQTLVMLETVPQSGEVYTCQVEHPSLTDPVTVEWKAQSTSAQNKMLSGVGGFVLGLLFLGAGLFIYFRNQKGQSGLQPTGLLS

Chain of H2-K^d (P01902 22-368): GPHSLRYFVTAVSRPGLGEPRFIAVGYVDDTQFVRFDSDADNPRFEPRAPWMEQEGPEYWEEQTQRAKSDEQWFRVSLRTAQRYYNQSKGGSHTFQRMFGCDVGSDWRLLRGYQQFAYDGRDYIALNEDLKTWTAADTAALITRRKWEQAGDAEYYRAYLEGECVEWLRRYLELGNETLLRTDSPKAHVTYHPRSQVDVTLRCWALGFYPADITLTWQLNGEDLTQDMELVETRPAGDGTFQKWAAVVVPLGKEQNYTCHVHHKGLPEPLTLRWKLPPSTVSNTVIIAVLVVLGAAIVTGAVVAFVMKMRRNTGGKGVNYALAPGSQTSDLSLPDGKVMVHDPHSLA
Chain of H2-K^d (P61769 21-119 partner): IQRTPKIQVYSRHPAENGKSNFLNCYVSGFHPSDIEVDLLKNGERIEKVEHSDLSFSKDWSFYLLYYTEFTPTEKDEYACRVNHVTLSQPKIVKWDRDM
Chain of H2-D^d (P01900 25-365): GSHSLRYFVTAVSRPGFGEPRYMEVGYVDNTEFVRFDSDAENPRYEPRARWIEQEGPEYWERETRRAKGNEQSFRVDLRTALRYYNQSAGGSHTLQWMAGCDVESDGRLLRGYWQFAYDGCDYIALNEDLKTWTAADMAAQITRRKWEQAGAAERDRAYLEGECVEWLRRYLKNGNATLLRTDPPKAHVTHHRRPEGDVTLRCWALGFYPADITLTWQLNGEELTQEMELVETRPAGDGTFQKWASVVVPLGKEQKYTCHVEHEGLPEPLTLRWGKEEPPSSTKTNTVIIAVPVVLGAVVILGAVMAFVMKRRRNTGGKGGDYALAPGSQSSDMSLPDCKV
Chain of H2-D^d (P61769 21-119 partner): as the sequence (P61769 21-119 partner) above
Chain of H2-L^d (P01897 25-362): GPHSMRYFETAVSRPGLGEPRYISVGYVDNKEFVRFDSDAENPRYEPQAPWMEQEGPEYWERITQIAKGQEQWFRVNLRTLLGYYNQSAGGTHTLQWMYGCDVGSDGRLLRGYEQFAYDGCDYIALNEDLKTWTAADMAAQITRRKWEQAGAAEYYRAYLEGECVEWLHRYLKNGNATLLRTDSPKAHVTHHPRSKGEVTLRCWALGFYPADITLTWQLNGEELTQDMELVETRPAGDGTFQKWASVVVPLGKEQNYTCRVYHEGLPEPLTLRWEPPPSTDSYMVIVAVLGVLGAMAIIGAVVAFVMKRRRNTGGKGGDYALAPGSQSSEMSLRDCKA
Chain of H2-L^d (P61769 21-119 partner): as the sequence (P61769 21-119 partner) above

Row | Compound | IC50 [1] [µM] | IC50 [2] [µM] | IC50 [3] [µM] | IC50 [4] [µM] | IC50 [5] [µM]
1 | CC(C)C[C@H](NC(=O)[C@@H](NC(=O)[C@H](C)NC(=O)[C@H](CC(N)=O)NC(=O)[C@H](Cc1ccc(O)cc1)NC(=O)[C@H](CS)NC(=O)[C@@H](NC(=O)[C@H](CCCCN)NC(=O)[C@@H](N)CCCNC(=N)N)C(C)C)C(C)C)C(=O)O [E57–65] | > 70 | > 70 | 39.4 | – | –
2 | CC(C)C[C@H](NC(=O)[C@@H](NC(=O)[C@H](C)NC(=O)[C@H](CC(N)=O)NC(=O)[C@H](Cc1ccc(O)cc1)NC(=O)[C@H](CS)NC(=O)[C@@H](N)C(C)C)C(C)C)C(=O)N[C@H](C(=O)N[C@@H](Cc1c[nH]cn1)C(=O)O)[C@@H](C)O [E59–67] (H-VCYNAVLTH-OH) | 0.211 | > 70 | 55.4 | – | –
3 | CC(C)C[C@H](NC(=O)[C@@H](NC(=O)[C@H](C)NC(=O)[C@H](CC(N)=O)NC(=O)[C@H](Cc1ccc(O)cc1)NC(=O)[C@@H](N)CS)C(C)C)C(=O)N[C@H](C(=O)N[C@@H](Cc1c[nH]cn1)C(=O)N[C@H](C(=O)O)C(C)C)[C@@H](C)O [E60–68] (H-CYNAVLTHV-OH) | 0.001 | > 70 | > 70 | – | –
4 | CC(C)C[C@H](NC(=O)[C@@H](NC(=O)[C@H](C)NC(=O)[C@H](CC(N)=O)NC(=O)[C@@H](N)Cc1ccc(O)cc1)C(C)C)C(=O)N[C@H](C(=O)N[C@@H](Cc1c[nH]cn1)C(=O)N[C@H](C(=O)N[C@@H](CCCCN)C(=O)O)C(C)C)[C@@H](C)O [E61–69] (H-YNAVLTHVK-OH) | 0.093 | > 70 | > 70 | – | –
5 | CC[C@H](C)[C@H](NC(=O)[C@H](CCCCN)NC(=O)[C@@H](NC(=O)[C@H](Cc1c[nH]cn1)NC(=O)[C@@H](NC(=O)[C@H](CC(C)C)NC(=O)[C@@H](NC(=O)[C@H](C)NC(=O)[C@@H](N)CC(N)=O)C(C)C)[C@@H](C)O)C(C)C)C(=O)O [E62–70] (H-NAVLTHVKI-OH) | 1.54 | > 70 | > 70 | – | –
6 | CC[C@H](C)[C@H](NC(=O)[C@H](CCCCN)NC(=O)[C@@H](NC(=O)[C@H](Cc1c[nH]cn1)NC(=O)[C@@H](NC(=O)[C@H](CC(C)C)NC(=O)[C@@H](NC(=O)[C@H](C)N)C(C)C)[C@@H](C)O)C(C)C)C(=O)N[C@@H](CC(N)=O)C(=O)O [E63–71] (H-AVLTHVKIN-OH) | 54.7 | > 70 | 20.7 | – | –
7 | CC[C@H](C)[C@H](NC(=O)[C@@H](NC(=O)[C@@H]1CCCN1C(=O)[C@@H](NC(=O)[C@H](CCCNC(=N)N)NC(=O)[C@@H](N)CS)[C@@H](C)CC)C(C)C)C(=O)N[C@H](C(=O)N[C@@H](C)C(=O)N[C@@H](CC(=O)O)C(=O)O)C(C)C [E330–338] (H-CRIPVIVAD-OH) | 0.915 | > 70 | 54.2 | – | –
8 | CC[C@H](C)[C@H](N)C(=O)N1CCC[C@H]1C(=O)N[C@H](C(=O)N[C@H](C(=O)N[C@H](C(=O)N[C@@H](C)C(=O)N[C@@H](CC(=O)O)C(=O)N[C@@H](CC(=O)O)C(=O)N[C@@H](CC(C)C)C(=O)O)C(C)C)[C@@H](C)CC)C(C)C [E332–340] (H-IPVIVADDL-OH) | 33 | > 70 | 0.056 | – | –
9 | CC[C@H](C)[C@H](NC(=O)[C@@H](NC(=O)[C@@H]1CCCN1)C(C)C)C(=O)N[C@H](C(=O)N[C@@H](C)C(=O)N[C@@H](CC(=O)O)C(=O)N[C@@H](CC(=O)O)C(=O)N[C@@H](CC(C)C)C(=O)N[C@H](C(=O)O)[C@@H](C)O)C(C)C [E333–341] (H-PVIVADDLT-OH) | > 70 | > 70 | 3.72 | – | –
10 | CC[C@H](C)[C@H](NC(=O)[C@@H](N)C(C)C)C(=O)N[C@H](C(=O)N[C@@H](C)C(=O)N[C@@H](CC(=O)O)C(=O)N[C@@H](CC(=O)O)C(=O)N[C@@H](CC(C)C)C(=O)N[C@H](C(=O)N[C@@H](C)C(=O)O)[C@@H](C)O)C(C)C [E334–342] (H-VIVADDLTA-OH) | > 70 | > 70 | 19.2 | – | –
11 | CC[C@H](C)[C@H](N)C(=O)N[C@H](C(=O)N[C@@H](C)C(=O)N[C@@H](CC(=O)O)C(=O)N[C@@H](CC(=O)O)C(=O)N[C@@H](CC(C)C)C(=O)N[C@H](C(=O)N[C@@H](C)C(=O)N[C@@H](C)C(=O)O)[C@@H](C)O)C(C)C [E335–343] (H-IVADDLTAA-OH) | > 70 | > 70 | 38 | – | –
12 | CC[C@H](C)[C@H](NC(=O)[C@@H](NC(=O)[C@H](CC(C)C)NC(=O)[C@H](C)NC(=O)[C@@H](NC(=O)[C@@H](NC(=O)[C@H](C)NC(=O)[C@H](Cc1ccccc1)NC(=O)[C@@H](N)Cc1ccccc1)C(C)C)[C@@H](C)O)[C@@H](C)O)C(=O)N[C@@H](C)C(=O)N[C@@H](Cc1ccc(O)cc1)C(=O)N[C@@H](CC(C)C)C(=O)N[C@H](C(=O)NCC(=O)N[C@@H](CO)C(=O)O)C(C)C [M41–55] | – | – | – | 6.21 | > 45
13 | CC[C@H](C)[C@H](NC(=O)[C@@H](NC(=O)[C@H](CC(C)C)NC(=O)[C@H](C)NC(=O)[C@@H](N)[C@@H](C)O)[C@@H](C)O)C(=O)N[C@@H](C)C(=O)N[C@@H](Cc1ccc(O)cc1)C(=O)N[C@@H](CC(C)C)C(=O)N[C@H](C(=O)NCC(=O)N[C@@H](CO)C(=O)N[C@@H](CC(N)=O)C(=O)N[C@@H](CCSC)C(=O)N[C@H](C(=O)N[C@@H](CCC(N)=O)C(=O)O)[C@@H](C)O)C(C)C [M45–59] | – | – | – | 0.102 | > 45
14 | CC[C@H](C)[C@H](N)C(=O)N[C@@H](C)C(=O)N[C@@H](Cc1ccc(O)cc1)C(=O)N[C@@H](CC(C)C)C(=O)N[C@H](C(=O)NCC(=O)N[C@@H](CO)C(=O)N[C@@H](CC(N)=O)C(=O)N[C@@H](CCSC)C(=O)N[C@H](C(=O)N[C@@H](CCC(N)=O)C(=O)N[C@@H](CCCNC(=N)N)C(=O)N[C@H](C(=O)N[C@H](C(=O)N[C@H](C(=O)O)[C@@H](C)CC)C(C)C)C(C)C)[C@@H](C)O)C(C)C [M49–63] | – | – | – | 0.383 | 29.7
15 | CC[C@H](C)[C@H](NC(=O)[C@@H](NC(=O)[C@@H](NC(=O)[C@H](CCCNC(=N)N)NC(=O)[C@H](CCC(N)=O)NC(=O)[C@@H](NC(=O)[C@H](CCSC)NC(=O)[C@H](CC(N)=O)NC(=O)[C@H](CO)NC(=O)CNC(=O)[C@@H](N)C(C)C)[C@@H](C)O)C(C)C)C(C)C)C(=O)N[C@@H](C)C(=O)N[C@@H](CC(C)C)C(=O)N[C@@H](CC(C)C)C(=O)N[C@H](C(=O)O)C(C)C [M53–67] | – | – | – | 0.03 | 32.3
16 | CC[C@H](C)[C@H](NC(=O)[C@@H](NC(=O)[C@@H](NC(=O)[C@H](CCCNC(=N)N)NC(=O)[C@H](CCC(N)=O)NC(=O)[C@@H](NC(=O)[C@@H](N)CCSC)[C@@H](C)O)C(C)C)C(C)C)C(=O)N[C@@H](C)C(=O)N[C@@H](CC(C)C)C(=O)N[C@@H](CC(C)C)C(=O)N[C@H](C(=O)N[C@@H](CC(C)C)C(=O)N[C@@H](C)C(=O)N[C@H](C(=O)NCC(=O)O)C(C)C)C(C)C [M57–71] | – | – | – | 6.48 | > 45
17 | CC[C@H](C)[C@H](NC(=O)[C@@H](NC(=O)[C@@H](N)C(C)C)C(C)C)C(=O)N[C@@H](C)C(=O)N[C@@H](CC(C)C)C(=O)N[C@@H](CC(C)C)C(=O)N[C@H](C(=O)N[C@@H](CC(C)C)C(=O)N[C@@H](C)C(=O)N[C@H](C(=O)NCC(=O)N1CCC[C@H]1C(=O)N[C@@H](C)C(=O)N[C@@H](Cc1ccc(O)cc1)C(=O)N[C@@H](CO)C(=O)O)C(C)C)C(C)C [M61–75] | – | – | – | 0.38 | > 45

Reference: article PMC2615555 (Virology, 2008)
